In ChEMBL document CHEMBL5543066, “Dual COX-2/15-LOX inhibitors: A new avenue in the prevention of cancer” (Eur J Med Chem, 2023):
pIC50: −log10 of the molar value.

What was measured:
[1] = biological target: T1, Prostaglandin G/H synthase 2 (Homo sapiens, UniProt P35354); test: Inhibition of human recombinant COX-2
T1 sequence (P35354 whole entry): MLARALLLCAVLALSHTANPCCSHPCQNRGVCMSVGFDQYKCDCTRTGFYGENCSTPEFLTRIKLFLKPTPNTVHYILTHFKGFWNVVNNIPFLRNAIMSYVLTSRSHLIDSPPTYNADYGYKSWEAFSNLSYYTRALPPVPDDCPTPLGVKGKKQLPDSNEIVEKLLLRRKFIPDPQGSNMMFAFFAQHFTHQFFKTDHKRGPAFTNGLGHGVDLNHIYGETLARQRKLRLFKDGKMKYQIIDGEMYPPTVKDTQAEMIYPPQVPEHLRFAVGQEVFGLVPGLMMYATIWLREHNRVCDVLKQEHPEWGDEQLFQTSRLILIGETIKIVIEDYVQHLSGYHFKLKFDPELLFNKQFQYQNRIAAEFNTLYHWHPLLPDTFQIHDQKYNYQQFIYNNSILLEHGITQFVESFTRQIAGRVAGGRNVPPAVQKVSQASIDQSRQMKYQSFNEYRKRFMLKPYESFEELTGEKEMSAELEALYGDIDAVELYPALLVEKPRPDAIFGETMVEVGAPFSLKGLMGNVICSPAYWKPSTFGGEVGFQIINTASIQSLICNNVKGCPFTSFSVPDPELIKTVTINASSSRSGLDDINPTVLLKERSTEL

[2] = biological target: T1, Prostaglandin G/H synthase 2; test: Inhibition of COX-2 (unknown origin) by Enzyme immune assay
Rattus norvegicus = test: Anti-inflammatory activity against carrageenan-induced paw edema in Wistar albino rat assessed as inhibition of paw edema at 50 mg/kg, sc administered for 14 days relative to control; format: functional; parameters: scale not given: the % may be the effect or the level left; details: time 14 day
[3] = Inhibition of soybean 15-LOX colorimetric assay; parameters: species or system Glycine max
[4] = Inhibition of soybean 15-LOX by chemiluminescence based analysis; parameters: species or system Glycine max
Mononuclear cell line = test: Induction of apoptosis in human Mononuclear cell line assessed as early apoptosis at 10 uM incubated for 48 hrs by AnnexinV-FITC/PI staining based flow cytometry relative to control; format: functional
[5] = Inhibition of soybean 15-LOX; parameters: species or system Glycine max
[6] = Inhibition of soybean 15-LOX by spectrophotometric method; parameters: species or system Glycine max
[7] = biological target: T1, Prostaglandin G/H synthase 2; test: Inhibition of COX-2 (unknown origin)
[8] = biological target: Prostaglandin G/H synthase 1 (Homo sapiens) (UniProt P23219); test: Inhibition of human COX-1 at 10 uM relative to control
[9] = Inhibition of human recombinant sPLA2-V
Caco-2 = test: Antiproliferative activity against human Caco-2 cells assessed as reduction in cell growth incubated for 72 hrs by MTT assay; format: functional, cell-based; details: Caco-2, 72 h
PC-3 = test: Antiproliferative activity against human PC-3 cells assessed as reduction in cell growth incubated for 72 hrs by MTT assay; format: functional, cell-based; details: PC-3, 72 h
MCF7 = test: Antitumor activity against human MCF7 cells assessed as reduction in cell viability measured for 72 hrs by MTT assay; format: functional, cell-based; details: MCF7, 72 h
A549 = test: Anticancer activity against human A549 cells assessed as reduction in cell viability measured for 72 hrs by MTT assay; format: functional, cell-based; details: A549, 72 h
HepG2 = test: Anticancer activity against human HepG2 cells assessed as cell viability measured after 72 hrs by MTT assay; format: functional, cell-based; details: HepG2, 72 h
[10] = Inhibition of soybean lipoxygenase; parameters: species or system Glycine max
[11] = biological target: T2, Seed linoleate 13S-lipoxygenase-1 (Glycine max, UniProt P08170); test: Inhibition of soybean LOX-1 using linoleic acid as substrate
T2 sequence (P08170 whole entry): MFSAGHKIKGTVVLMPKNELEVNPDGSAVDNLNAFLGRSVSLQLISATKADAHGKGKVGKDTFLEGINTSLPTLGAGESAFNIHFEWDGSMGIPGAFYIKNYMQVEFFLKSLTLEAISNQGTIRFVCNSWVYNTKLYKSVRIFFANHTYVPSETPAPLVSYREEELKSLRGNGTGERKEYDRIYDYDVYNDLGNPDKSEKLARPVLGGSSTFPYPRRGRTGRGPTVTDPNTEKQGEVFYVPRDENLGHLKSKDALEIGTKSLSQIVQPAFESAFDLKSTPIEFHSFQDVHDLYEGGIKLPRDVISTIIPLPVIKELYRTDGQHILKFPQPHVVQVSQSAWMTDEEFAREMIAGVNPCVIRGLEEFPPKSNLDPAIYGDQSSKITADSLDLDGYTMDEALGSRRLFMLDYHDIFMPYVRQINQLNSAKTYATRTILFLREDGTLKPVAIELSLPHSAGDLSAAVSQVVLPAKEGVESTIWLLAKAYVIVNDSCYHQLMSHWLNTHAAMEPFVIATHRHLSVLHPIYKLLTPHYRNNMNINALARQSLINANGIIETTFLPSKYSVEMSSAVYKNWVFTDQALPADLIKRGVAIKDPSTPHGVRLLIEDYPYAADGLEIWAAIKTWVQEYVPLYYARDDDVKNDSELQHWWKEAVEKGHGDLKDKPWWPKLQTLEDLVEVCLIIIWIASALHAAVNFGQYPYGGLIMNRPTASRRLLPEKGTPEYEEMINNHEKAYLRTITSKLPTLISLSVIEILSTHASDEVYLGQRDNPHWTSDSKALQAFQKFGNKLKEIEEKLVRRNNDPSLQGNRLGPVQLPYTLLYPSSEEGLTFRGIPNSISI

Sequence of Prostaglandin G/H synthase 1 (Homo sapiens) (P23219 whole entry): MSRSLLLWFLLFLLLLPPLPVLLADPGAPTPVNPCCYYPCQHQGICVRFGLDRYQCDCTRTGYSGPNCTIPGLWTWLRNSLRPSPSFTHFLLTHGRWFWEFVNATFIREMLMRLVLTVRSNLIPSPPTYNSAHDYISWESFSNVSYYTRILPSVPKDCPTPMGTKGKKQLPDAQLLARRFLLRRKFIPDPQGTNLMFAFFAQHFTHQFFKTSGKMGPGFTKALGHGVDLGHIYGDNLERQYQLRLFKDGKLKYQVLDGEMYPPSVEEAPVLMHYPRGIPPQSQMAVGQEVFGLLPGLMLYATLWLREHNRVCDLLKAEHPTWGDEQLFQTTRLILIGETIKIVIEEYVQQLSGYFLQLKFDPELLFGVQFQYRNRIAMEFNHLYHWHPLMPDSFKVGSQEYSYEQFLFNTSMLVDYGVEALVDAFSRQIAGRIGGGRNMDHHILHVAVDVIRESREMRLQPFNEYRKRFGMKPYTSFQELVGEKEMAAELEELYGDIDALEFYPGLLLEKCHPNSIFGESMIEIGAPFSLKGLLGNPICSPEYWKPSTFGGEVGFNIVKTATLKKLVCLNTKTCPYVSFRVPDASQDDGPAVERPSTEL

Compound: COc1ccc(/C=C/C(=O)c2cc(-n3cc(CN4C(=O)C(=O)c5ccccc54)nn3)ccc2O)cc1
- pIC50 [1]: 5.85

Compound: COc1ccc(/C(N)=N/OC(=O)C(C)c2ccc3cc(OC)ccc3c2)cc1 (stereo not given)
- pIC50 [2]: 8.19

Compound: COc1ccnc(Nc2nn3c(C)cc(C)nc3c2C#N)c1
- Activity (Rattus norvegicus): 46%
- pIC50 [3]: 5.25

Compound: Cc1cc(C)cc(NC(=O)CSc2nnc(C3CCN(C(=O)Nc4ccccc4)CC3)o2)c1
- pIC50 [4]: 4.58
- Activity (Mononuclear cell line): 79.5%

Compound: C=CCc1cc(NC(=O)C23CC4CC(CC(C4)C2)C3)ccc1OC(C)C
- pIC50 [5]: 5.87

Compound: Cc1ccc(OCc2nnc(SCC(=O)Nc3ccccc3)o2)cc1
- pIC50 [5]: 4.67

Compound: CCOC(=O)c1sc(N/N=C/c2ccccc2)nc1C
- pIC50 [6]: 6.92

Compound: COc1ccc2cc(C(C)C(=O)O/N=C(\N)c3ccc(Cl)cc3)ccc2c1 (stereo not given)
- pIC50 [2]: 8.19

Compound: CCN(CC)C(=O)CSc1nnc(C2CCN(C(=O)Nc3ccccc3)CC2)o1
- pIC50 [4]: 4.80
- Activity (Mononuclear cell line): 79.5%

Compound: COc1ccc(Cn2cc(COc3ccc(/C=C4\SC(=O)NC4=O)cc3)nn2)cc1
- pIC50 [4]: 5.28

Compound: CCCNC(=O)CSc1nnc(C2CCN(C(=O)Nc3ccccc3)CC2)o1
- pIC50 [4]: 5.03

Compound: CC(=O)Nc1ccc(O)cc1 [ACETAMINOPHEN]
- pIC50 [5]: 5.19

Compound: Cc1cccc(Nc2ccccc2C(=O)O)c1C [MEFENAMIC ACID]
- pIC50 [5]: 4.61

Compound: O=c1c(O)c(-c2ccc(O)c(O)c2)oc2cc(O)cc(O)c12 [QUERCETIN]
- pIC50 [5]: 5.32
- Activity (Mononuclear cell line): 4.26%

Compound: O=C1N/C(=N\c2nnc(-c3ccc(O)cc3)s2)S/C1=C\c1ccccc1
- pIC50 [7]: 7.15
- pIC50 [5]: 4.96

Compound: COc1ccc2cc(C(C)C(=O)O/N=C(\N)c3ccc(OC)c(OC)c3)ccc2c1 (stereo not given)
- pIC50 [2]: 8.19

Compound: COc1ccc(-c2nnc(N/N=C/c3ccc4c(c3)OCO4)nc2-c2ccc(OC)cc2)cc1
- inhibition [8]: 50%

Compound: CCc1ccccc1NC(=O)CSc1nnc(C2CCN(C(=O)Nc3ccccc3)CC2)o1
- pIC50 [4]: 5.15

Compound: CC(=O)Oc1ccccc1C(=O)O [ASPIRIN]
- pIC50 [5]: 5.34

Compound: CCc1ccc(NC(=O)CSc2nnc(C3CCN(C(=O)Nc4ccccc4)CC3)o2)cc1
- pIC50 [4]: 4.58

Compound: COc1ccc2cc([C@H](C)C(=O)O)ccc2c1 [NAPROXEN]
- pIC50 [5]: 5.45

Compound: O=c1cc(-c2ccccc2)oc2cc(O)c(O)c(O)c12 [BAICALEIN]
- pIC50 [5]: 4.65

Compound: CN1C(C(=O)Nc2ccccn2)=C(O)c2sccc2S1(=O)=O [TENOXICAM]
- pIC50 [5]: 4.31

Compound: O=C(Cc1ccccc1Nc1c(Cl)cccc1Cl)N/N=C1\C(=O)N(Cc2ccccc2)c2ccc(Cl)cc21
- pIC50 [5]: 5.34

Compound: Cc1cccc(NC(=O)CSc2nnc(C3CCN(C(=O)Nc4ccccc4)CC3)o2)c1
- pIC50 [4]: 4.58

Compound: COc1ccc2cc(C(C)C(=O)ON=C(N)c3ccc(-c4ccccc4)c(-c4ccccc4)c3)ccc2c1 (stereo not given)
- pIC50 [2]: 8.75

Compound: CCOc1cc(C)nc2c(C#N)c(Nc3cc(OC)ccn3)nn12
- Activity (Rattus norvegicus): 46%
- pIC50 [9]: 5.77

Compound: COc1ccc2cc(C(C)C(=O)ON=C(N)c3ccc4c(c3)OCO4)ccc2c1 (stereo not given)
- pIC50 [2]: 8.19

Compound: Cc1ccc(Cl)c(Nc2ccccc2C(=O)O)c1Cl [MECLOFENAMATE SODIUM]
- pIC50 [2]: 8.25

Compound: CN1C(C(=O)Nc2ccccn2)=C(O)c2ccccc2S1(=O)=O [PIROXICAM]
- pIC50 [5]: 4.20

Compound: Cc1ccc(NC(=O)CSc2nnc(C3CCN(C(=O)Nc4ccccc4)CC3)o2)cc1C
- pIC50 [4]: 4.58

Compound: O=C(Cc1ccccc1Nc1c(Cl)cccc1Cl)N/N=C1\C(=O)N(Cc2ccccc2)c2ccccc21
- pIC50 [5]: 5.18

Compound: O=C(/C=C/c1ccc(Br)cc1)c1cc(-n2cc(CN3C(=O)C(=O)c4ccccc43)nn2)ccc1O
- pIC50 [1]: 5.85

Compound: CCOc1cc(N)n2nc(Nc3cc(OC)ccn3)c(C#N)c2n1
- Activity (Rattus norvegicus): 46%

Compound: O=C(CSc1nnc(C2CCN(C(=O)Nc3ccccc3)CC2)o1)NC1CCCCC1
- pIC50 [4]: 4.58

Compound: O=C(CSc1nnc(C2CCN(C(=O)Nc3ccccc3)CC2)o1)Nc1ccccc1
- pIC50 [4]: 4.58

Compound: CC(c1cc2ccccc2s1)N(O)C(N)=O (stereo not given) [ZILEUTON]
- pIC50 [5]: 4.82

Compound: CC(C)(C)Nc1c(-c2cc3ccccc3nc2Cl)nc2sccn12
- pIC50 [5]: ≥ 4.40

Compound: O=C(O)Cc1ccccc1Nc1c(Cl)cccc1Cl [DICLOFENAC]
- pIC50 [5]: 4.61

Compound: CCn1c(-n2cc(/C=N/N=C3\SCC(=O)N3c3ccccc3)c(-c3ccccc3)n2)nc2c1c(=O)n(C)c(=O)n2C
- pIC50 (Caco-2): 4.73
- pIC50 (PC-3): 4.73
- pIC50 (MCF7): 4.73
- pIC50 (A549): 4.73
- pIC50 (HepG2): 4.73

Compound: CCOC(=O)c1sc(N/N=C/c2c(F)cccc2Cl)nc1C
- pIC50 [6]: 6.92

Compound: CC(Cc1ccc(O)c(O)c1)C(C)Cc1ccc(O)c(O)c1 (stereo not given) [NORDIHYDROGUAIARETIC ACID]
- pIC50 [3]: 5.07

Compound: COc1ccc(-c2nnc(N/N=C/c3ccc(F)cc3)nc2-c2ccc(OC)cc2)cc1
- pIC50 [10]: 3.91

Compound: Cc1ccc(NC(=O)CSc2nnc(C3CCN(C(=O)Nc4ccccc4)CC3)o2)c(C)c1
- pIC50 [4]: 4.58
- Activity (Mononuclear cell line): 79.5%

Compound: CCn1c(-n2cc(/C=N/N=c3\scc(-c4ccc(Br)cc4)n3-c3ccccc3)c(-c3ccccc3)n2)nc2c1c(=O)n(C)c(=O)n2C
- pIC50 (Caco-2): 4.73
- pIC50 (PC-3): 4.73
- pIC50 (MCF7): 4.73
- pIC50 (A549): 4.73
- pIC50 (HepG2): 4.73

Compound: CC(=O)c1cc2ccc(OC/C=C(\C)CC/C=C(\C)CCC=C(C)C)cc2oc1=O
- pIC50 [11]: 6.17

Compound: Cc1cccc(C)c1NC(=O)CSc1nnc(C2CCN(C(=O)Nc3ccccc3)CC2)o1
- pIC50 [4]: 4.74

Compound: CN(C)c1ccc(/C=C/C(=O)c2cc(-n3cc(CN4C(=O)C(=O)c5ccccc54)nn3)ccc2O)cc1
- pIC50 [1]: 5.85

Compound: CC(C(=O)O)c1cccc(C(=O)c2ccccc2)c1 (stereo not given) [KETOPROFEN]
- pIC50 [5]: 4.61

Compound: Cc1ccc(C)c(NC(=O)CSc2nnc(C3CCN(C(=O)Nc4ccccc4)CC3)o2)c1
- pIC50 [4]: 4.58
